Test results taken from patent US6391876B1 (Pharmacia and Upjohn Company, priority 1998, dated 2002).

Key:
[1] = test system: muscarinic cholinergic receptors; assay: interaction with muscarinic cholinergic receptors; assay type: binding
dopamine uptake = test system: dopamine uptake
Description: (§1) Leonard-BE, “Noradrenaline in basic models of depression.” European-Neuropsychopharmacol. April 1997; 7 Suppl 1: S11-6; discussion S71-3.

serotonin uptake = test system: serotonin uptake
Description: as §1

monoamine oxidase (MAO) = test system: monoamine oxidase (MAO)
Description: as §1

norepinephrine uptake = test system: norepinephrine uptake
Description: as §1

[2] = in vivo; cited from earlier work
[3] = test system: patients with panic Disorder with or without Agoraphobia
[4] = test system: patients with a DSM-III-R diagnosis of Obsessive Compulsive Disorder; assay: trial in patients with Obsessive Compulsive Disorder; assay type: in vivo, human; conditions: 10 OCD patients, 3 to 4 weeks, 6 mg first week then 8 mg per day
I-adrenerigic receptors = assay: interaction with I-adrenerigic receptors; assay type: binding
[5] = vs placebo, at some point in time

Q: Which results are given for `CCOc1ccccc1OC(c1ccccc1)C1CNCCO1` (stereo not drawn) [reboxetine]?
A: interaction with muscarinic cholinergic receptors [1]: without showing any appreciable interaction; dopamine uptake inhibitory activity (dopamine uptake): no dopamine uptake inhibitory activity; serotonin uptake inhibitory activity (serotonin uptake): only marginal; monoamine oxidase (MAO) inhibitory activity (monoamine oxidase (MAO)): devoid of monoamine oxidase (MAO) inhibitory activity; norepinephrine uptake inhibitory activity (norepinephrine uptake): highly selective norepinephrine uptake inhibitor; effect in the 8-OH-DPAT hypothermia test [2]: ineffective; mean number of major panic attacks ([3]; 37 patients on reboxetine vs 38 on placebo): significantly lower than for those on placebo; anticipatory anxiety [3, 5]: better; phobic symptoms [3, 5]: better; social and family adjustment [3, 5]: better; patients judged minimally improved at CGI last assessment [4]: 2; patients judged much improved at CGI last assessment [4]: 4; patients judged very much improved at CGI last assessment [4]: one; patients unchanged at CGI last assessment [4]: 3; interaction with I-adrenerigic receptors (I-adrenerigic receptors): without showing any appreciable interaction
